In article PMC7217150, “Synthesis, Modification, and Biological Evaluation of a Library of Novel Water‐Soluble Thiopyridone‐Based Organometallic Complexes and Their Unexpected (Biological) Behavior” (Chemistry (Weinheim an Der Bergstrasse, Germany), 2020):

How the values were obtained:
SW480 = assay: Cell cycle distribution, flow cytometry with propidium iodide; type: cell-based, human; settings: for Cell cycle distribution G1, % / Cell cycle distribution G2/M, % / Cell cycle distribution S, %: 24 h, mean ± SD; for Relative change in cell cycle distribution G1, % / Relative change in cell cycle distribution G2/M, % / Relative change in cell cycle distribution S, %: difference to untreated control
Protocol: (§1) The influence of two ligands, as well as seven complexes on cell cycle distribution was tested in two of the cancer cell lines (SW480, CH1/PA‐1) by means of flow cytometry. The cell cycle distribution (G1, S, G2/M phase in %; Table S37) was investigated upon DNA staining with propidium iodide.
(§2) CH1/PA‐1 and SW480 cells were harvested by trypsinization, 8×10^4 and 1.2×10^5 cells per well were seeded into 12‐well plates, respectively. The cells were allowed to attach and resume proliferation for 24 h after the seeding. […] After continuous exposure for 24 h at 37 °C and under 5 % CO2, the cells were harvested by trypsinization and centrifuged at 300 g for 3 min. The cells were washed with PBS (1 mL) and resuspended in propidium iodine (PI) containing HSF buffer (600 μL; 0.1 % Triton X‐100, 0.1 % sodium citrate, 50 μg mL^−1 PI in PBS). After incubation overnight at 4 °C in the dark, 5×10^3 cells were measured by flow cytometry with a Millipore Guava easyCyte 8HT instrument (Luminex, USA). Data were evaluated by means of FlowJo software (Tree Star) using Watson Pragmatic algorithms.60 The fitting of the curve was chosen to keep the root mean square error between 1.0 and 2.0, alongside with good fitting visual model.

CH1/PA‐1 = assay: as above; type: cell-based, human; settings: for Cell cycle distribution G1, % / Cell cycle distribution S, % / Cell cycle distribution G2/M, %: 24 h, mean ± SD
Protocol: as §1, §2

[1] = CH1/PA-1, 0.25 µM, difference to untreated control
[2] = CH1/PA-1, 0.5 µM, difference to untreated control
[3] = CH1/PA-1, 1 µM, difference to untreated control

COc1cc([C@@H]2c3cc4c(cc3[C@@H](O[C@@H]3O[C@@H]5CO[C@@H](C)O[C@H]5[C@H](O)[C@H]3O)[C@H]3COC(=O)[C@H]23)OCO4)cc(OC)c1O [Etoposide, reference compound]
Cell cycle distribution G1, % (SW480; SW480, 0.25 µM): 9 ± 2%
Cell cycle distribution G2/M, % (SW480; SW480, 0.25 µM): 65 ± 10%
Cell cycle distribution S, % (SW480; SW480, 0.25 µM): 26 ± 4%
Relative change in cell cycle distribution G1, % (SW480; SW480, 0.25 µM): -39%
Relative change in cell cycle distribution G2/M, % (SW480; SW480, 0.25 µM): 46%
Relative change in cell cycle distribution S, % (SW480; SW480, 0.25 µM): -7%
Cell cycle distribution G1, % (SW480; SW480, 0.5 µM): 3 ± 1%
Cell cycle distribution G2/M, % (SW480; SW480, 0.5 µM): 78 ± 6%
Cell cycle distribution S, % (SW480; SW480, 0.5 µM): 19 ± 7%
Relative change in cell cycle distribution G1, % (SW480; SW480, 0.5 µM): -45%
Relative change in cell cycle distribution G2/M, % (SW480; SW480, 0.5 µM): 59%
Relative change in cell cycle distribution S, % (SW480; SW480, 0.5 µM): -14%
Cell cycle distribution G1, % (SW480; SW480, 1 µM): 6 ± 4%
Cell cycle distribution G2/M, % (SW480; SW480, 1 µM): 65 ± 10%
Cell cycle distribution S, % (SW480; SW480, 1 µM): 30 ± 15%
Relative change in cell cycle distribution G1, % (SW480; SW480, 1 µM): -42%
Relative change in cell cycle distribution G2/M, % (SW480; SW480, 1 µM): 46%
Relative change in cell cycle distribution S, % (SW480; SW480, 1 µM): -3%
Cell cycle distribution G1, % (CH1/PA‐1; CH1/PA-1, 0.25 µM): 8 ± 5%
Cell cycle distribution S, % (CH1/PA‐1; CH1/PA-1, 0.25 µM): 15 ± 4%
Relative change in cell cycle distribution G1, % (CH1/PA‐1; [1]): -32%
Relative change in cell cycle distribution G2/M, % (CH1/PA‐1; [1]): 53%
Relative change in cell cycle distribution S, % (CH1/PA‐1; [1]): -21%
Cell cycle distribution G1, % (CH1/PA‐1; CH1/PA-1, 0.5 µM): 4 ± 1%
Cell cycle distribution G2/M, % (CH1/PA‐1; CH1/PA-1, 0.5 µM): 85 ± 5%
Cell cycle distribution S, % (CH1/PA‐1; CH1/PA-1, 0.5 µM): 10 ± 3%
Relative change in cell cycle distribution G1, % (CH1/PA‐1; [2]): -36%
Relative change in cell cycle distribution G2/M, % (CH1/PA‐1; [2]): 61%
Cell cycle distribution G1, % (CH1/PA‐1; CH1/PA-1, 1 µM): 3 ± 3%
Cell cycle distribution G2/M, % (CH1/PA‐1; CH1/PA-1, 1 µM): 87 ± 6%
Cell cycle distribution S, % (CH1/PA‐1; CH1/PA-1, 1 µM): 10 ± 5%
Relative change in cell cycle distribution G1, % (CH1/PA‐1; [3]): -37%
Relative change in cell cycle distribution G2/M, % (CH1/PA‐1; [3]): 63%
